Measured values taken from patent US5773646A, “Meta-substituted phenylene derivatives” (G. D. Searle & Co., priority 1997, dated 1998).
Where a name gives a salt, the structure may show the parent alone.

Legend:
[1] = biological target: T1, Human fibrinogen receptor (αIIb β3) (Homo sapiens, UniProt P05106+P08514); assay: Purified IIb/IIIa receptor assay (solid phase receptor assay, biotinylated vitronectin competition); conditions: inhibition of 50% of the maximum binding of biotinylated vitronectin; 1 nM labeled ligand, 2 hours, room temperature, highest concentration of test compound 1.0×10^-4 M
T1 construct: Human fibrinogen receptor (αIIb β3) was purified from outdated platelets; from tissue; host or cells: outdated human platelets
How it was run: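 Platelet-purified αIIbβ3 was coated at 100 ng/well in TBS with 1 mM Ca²⁺/Mg²⁺/Mn²⁺, pH 7.4, then BSA-blocked. Compound (up to 1.0×10⁻⁴ M final) competed with 1 nM biotinylated vitronectin for 2 h at room temperature. Bound ligand was detected with HRP anti-biotin at A450, normalized to maximum binding, and curve-fitted.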

[2] = biological target: T2, Human vitronectin receptor (αv β3) (Homo sapiens, UniProt P05106+P06756); assay: Vitronectin adhesion assay (solid phase receptor assay, biotinylated vitronectin competition); assay type: binding; conditions: inhibition of 50% of the maximum binding of biotinylated vitronectin; 1 nM labeled ligand, 2 hours, room temperature, highest concentration of test compound 1.0×10^-4 M; read-out: AvB3 IC50
T2 construct: Human vitronectin receptor(αv β3) was purified from human placenta; from tissue; host or cells: human placenta
How it was run: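 Placenta-purified αvβ3 coated at 1.0 μg/mL in TBS (1 mM Ca, Mg, Mn, pH 7.4), overnight 4 °C. Compound competed 2 h at RT with 1 nM biotinylated vitronectin (final; top compound 1.0×10^-4 M); bound ligand detected by HRP anti-biotin/OPD at 450 nm, normalized to no-competitor controls, four-parameter fit.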

IC50 [1]	IC50 [2]	Compound
0.454 µM	0.0235 µM	COc1ccccc1C(CC(=O)O)c1cccc(CNC(=O)c2cccc(NC(=N)N)c2)c1 (racemic) [Example 63, (±) -[3-[[[[3-[(aminoiminomethyl)amino]phenyl]carbonyl]amino]methyl]phenyl]-2-methoxybenzene propanoic acid, trifluoroacetate salt hydrate]
> 100 µM	11.3 µM	CCOC(=O)CC(CC)c1cccc(CNC(=O)c2cccc(NC(=N)N)c2)c1 (stereo not drawn) [Example 41, ethyl 3-[[[[3-[(aminoiminomethyl)amino]phenyl]carbonyl]amino]methyl)-β-ethylbenzenepropanoate, trifluoroacetate salt]
2.64 µM	1.67 µM	N=C(N)Nc1cccc(NC(=O)NCc2cccc(CCC(=O)O)c2)c1 [Example 53, 3-[[[[[3-[(aminoiminomethyl)amino]phenyl]amino]carbonyl]amino]methyl]benzenepropanoic acid, trifluoroacetate salt]
